Measurements as given in patent publication USRE47084E1, “Oral medicinal product with modified release of at least one active principle in multimicrocapsular form” (FLAMEL IRELAND LIMITED, priority 2003, dated 2018).
In brackets after ≈: the same amount, converted by molar mass.

Experiment: Solubility of the active principles
Format: physicochemical

| Structure (SMILES) | solubility [µg/mL] |
| --- | --- |
| Nc1nc2c(ncn2COCCO)c(=O)[nH]1 [Acyclovir] | 10000 (≈ 44400 µM) |
| Cc1c(OCC(F)(F)F)ccnc1C[S+]([O-])c1nc2ccccc2[nH]1 (stereo not shown) [Lansoprazole] | 50 (≈ 135 µM) |
| O=C1CN(/N=C/c2ccc([N+](=O)[O-])o2)C(=O)N1 [Nitrofurantoin] | 300 (≈ 1260 µM) |
| CC(=O)S[C@@H]1CC2=CC(=O)CC[C@]2(C)[C@H]2CC[C@@]3(C)[C@@H](CC[C@@]34CCC(=O)O4)[C@H]12 [Spironolactone] | 20 (≈ 48 µM) |
